# From patent US8420657B2 (Novartis AG, priority 2008, dated 2013)
# How the values were obtained:
# [1] = biological target: T1, GST-JAK2(808-1132) (Homo sapiens, UniProt O60674); experiment: JAK2 kinase assay (Caliper mobility shift, LabChip 3000); type: biochemical
# T1 construct: GST-JAK2(808-1132); purchased Invitrogen (Carlsbad, USA) #4288
# Procedure, shortened: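 Recombinant GST-JAK2(808-1132) kinase domain with FITC-labelled JAK3tide peptide substrate and ATP; 60 min at 30 °C, EDTA stop. Substrate/product ratio read by microfluidic mobility shift; compounds at 8 final concentrations, 10 to 0.003 μM.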
# [2] = test system: JAK1/JAK2-dependent nuclear translocation of STAT1-GFP in HT1080 fibrosarcoma cells; experiment: STAT1 nuclear translocation assay (Cellomics), IFN-γ stimulated HT1080 STAT1-GFP cells; type: cell-based; settings: Homo sapiens, HT-1080, STAT1 translocation pathway
# Procedure, shortened: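 HT1080 cells stably expressing STAT1-GFP, pre-treated 30 min with compound (10 μM–0.003 μM, 0.1% DMSO), then stimulated 2 h with 100 ng/ml IFN-γ, fixed and Hoechst-stained. Nuclear-cytoplasmic GFP differential imaged over ≥1000 cells/well, normalised to unstimulated and DMSO-stimulated wells for IC50.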
# T1 sequence (O60674 808-1132): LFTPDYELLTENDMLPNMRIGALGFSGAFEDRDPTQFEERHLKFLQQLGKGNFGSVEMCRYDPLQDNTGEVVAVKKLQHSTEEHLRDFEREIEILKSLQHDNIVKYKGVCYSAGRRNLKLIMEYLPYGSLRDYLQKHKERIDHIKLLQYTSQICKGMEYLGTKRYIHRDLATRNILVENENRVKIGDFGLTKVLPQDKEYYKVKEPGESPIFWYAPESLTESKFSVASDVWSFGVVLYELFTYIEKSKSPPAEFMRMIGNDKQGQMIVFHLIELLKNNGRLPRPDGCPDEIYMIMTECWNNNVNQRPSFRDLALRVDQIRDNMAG
Compound,IC50 [1] [µM],IC50 [2] [µM]
"CC(=O)N1CCN(Cc2ccc(Nc3ncc4ccn(-c5ccc(C(=O)N6CCOCC6)cc5)c4n3)cc2)CC1 [Example 338, 1-[4-(4-{7-[4-(Morpholine-4-carbonyl)-phenyl]-7H-pyrrolo[2,3-d]pyrimidin-2-ylamino}-benzyl)-piperazin-1-yl]-ethanone]",0.0039,0.135
"CC(=O)N1CCN(Cc2ccc(Nc3ncc4ccn(-c5cc(F)c(CN6CCNC(=O)C6)c(F)c5)c4n3)cc2)CC1 [Example 339, 4-(4-{2-[4-(4-Acetyl-piperazin-1-ylmethyl)-phenylamino]-pyrrolo[2 3-d]pyrimidin-7-yl}-2,6-difluoro-benzyl)-piperazin-2-one]",0.0037,0.285
"O=C1CN(Cc2c(F)cc(-n3ccc4cnc(Nc5ccc(CN6CCN(C7CC7)CC6)cc5)nc43)cc2F)CCN1 [Example 340, 4-(4-{2-[4-(4-Cyclopropyl-piperazin-1-ylmethyl)-phenylamino]-pyrrolo[2,3-d]pyrimidin-7-yl}-2,6-difluoro-benzyl)-piperazin-2-one]",0.0072,0.27
"C[C@@H]1CN(c2ccc(Nc3ncc4ccn(-c5cc(F)c(CN6CCNC(=O)C6)c(F)c5)c4n3)cn2)C[C@H](C)N1 [Example 342, 4-(4-{2-[6-(cis-3,5-Dimethyl-piperazin-1-yl)-pyridin-3-ylamino]-pyrrolo[2,3-d]pyrimidin-7-yl}-2,6-difluoro-benzyl)-piperazin-2-one]",≤ 0.003,0.479
"Cc1ccc(Nc2ncc3ccn(-c4cc(F)c(CN5CCNC(=O)C5)c(F)c4)c3n2)cc1CN1CCN(C)CC1 [Example 343, 4-(2,6-Difluoro-4-{2-[4-methyl-3-(4-methyl-piperazin-1-ylmethyl)-phenylamino]-pyrrolo[2,3-d]pyrimidin-7-yl}-benzyl)-piperazin-2-one]",≤ 0.003,0.151
"C[C@@H]1CN(c2ccc(Nc3ncc4ccn(-c5cc(F)c(CN6CCS(=O)(=O)CC6)c(F)c5)c4n3)cn2)C[C@H](C)N1 [Example 441, [6-(cis-3,5-Dimethyl-piperazin-1-yl)-pyridin-3-yl]-{7-[4-(1,1-dioxido-thiomorpholin-4-ylmethyl)-3,5-difluoro-phenyl]-7H-pyrrolo[2,3-d]pyrimidin-2-yl}-amine]",≤ 0.003,0.045
"CN1CCN(c2ccc(Nc3ncc4ccn(-c5cc(F)c(CN6CCS(=O)(=O)CC6)c(F)c5)c4n3)cn2)CC1 [Example 443, {7-[4-(1,1-Dioxido-thiomorpholin-4-ylmethyl)-3,5-difluoro-phenyl]-7H-pyrrolo[2,3-d]pyrimidin-2-yl}-[6-(4-methyl-piperazin-1-yl)-pyridin-3-yl]-amine]",≤ 0.003,0.0095
"O=S1(=O)CCN(Cc2c(F)cc(-n3ccc4cnc(Nc5ccc(N6CCNCC6)nc5)nc43)cc2F)CC1 [Example 444, {7-[4-(1,1-Dioxido-thiomorpholin-4-ylmethyl)-3,5-difluoro-phenyl]-7H-pyrrolo[2,3-d]pyrimidin-2-yl}-(6-piperazin-1-yl-pyridin-3-yl)-amine]",≤ 0.003,0.09
"CC(C)Oc1ccc(Nc2ncc3ccn(-c4ccc(C(=O)N5CCOCC5)cc4F)c3n2)cc1 [Example 522, {3-Fluoro-4-[2-(4-isopropoxy-phenylamino)-pyrrolo[2,3-d]pyrimidin-7-yl]-phenyl}-morpholin-4-yl-methanone]",0.008,2.89
